Laboratory results reported in PubChem BioAssay AID1963449 (Molecular Pharmacology Branch, DTP, NCI, 2024).
pIC50: −log10 of the molar value. Each block holds one molecule with its values, some of them ahead of it.

Tested on: 596521-263-R-J1-PDC complex spheroid growth
Test: Anticancer human tumor 596521-263-R-J1-PDC patient-derived soft tissue sarcoma cell line growth inhibition [Asc]
Settings: for pIC50: curve of first compound; for viability, T/C: stronger effect = lower value
Protocol: Multicellular complex tumor spheroid response to apoptosis pathway targeting inhibitors Alrizomadlin, Pelcitoclax, and Dasminapant in combination with a variety of drugs and investigational agents in selected tumor cell lines
The MDM2 inhibitor alrizomadlin, the Bcl-2/Bcl-xL inhibitor pelcitoclax, and the IAPs inhibitor dasminapant were evaluated both individually and in combination with standard of care and investigational anticancer small molecules within a complex spheroid model of solid tumors. . Complex spheroids include a stromal component modeled by human endothelial cells (HUVEC) and fibroblasts modeled by human mesenchymal stem cells (MSCs). The concentration ranges selected for each drug and investigational agent were based upon clinically achievable concentrations if the clinical Cmax of the agent was known.
Compounds. The drugs and investigational agents: alrizomadlin (APG-115; NSC831270), pelcitoclax (APG-1252; NSC835773), dasminapant (APG-1387;NSC834197), TAK-243 (NSC785004), copanlisib (NSC809693), olaparib (NSC753686), talazoparib (NSC767125), cobimetinib (NSC 768068), eltanexor (KPT-8602, NSC 794443), abemaciclib (NSC 768073), sotorasib (NSC818433), adagrasib (NSC 831453), MRTX-1133 (NSC 836407), Iadademestat (ORY1001, NSC 806812), and RMC-4630 (NSC839698), were obtained from the NCI Developmental Therapeutics Program Chemical Repository. The FDA-approved anticancer drug set is available from the Developmental Therapeutics Program at https://dtp.cancer.gov/organization/dscb/obtaining/available plates.htm. […] The stock solutions were prepared in dimethyl sulfoxide (DMSO, Sigma-Aldrich, St. Louis, MO, cat. D2650) at 800-fold the tested concentration and stored at -70 degrees C prior to their use. All drugs and investigational agents were tested over a range starting from a high concentration at or near the clinical Cmax and decreasing in half-log increments. If the clinical Cmax for an agent had not been determined, the highest concentration tested was 10 microM.
The patient-derived cancer (PDC) cell lines include five colon adenocarcinomas: 186277-243-T-J2-PDC, 616215-338-R-J1-PDC, 439559-082-T-J2-PDC, 463943-066-T-J2-PDC, and 519858-162-T-J1-PDC; three pancreatic carcinomas: 323965-272-R-J2-PDC, 521955-158-R6-J3-PDC, and 521955-158-R2-J5-PDC; two uterine sarcomas: 327498-152-R-J2-PDC and 993429-296-R-J1-PDC; two rhabdomyosarcomas: 755483-174-R-J1-PDC and 772245-204-R-J1-PDC; two soft tissue sarcomas: 126254-015-R-J1-PDC and 494315-158-R-J1-PDC; two malignant fibrous histiocytomas: 317291-083-R-J1-PDC and 596521-263-R-J1-PDC; two breast carcinomas: 171881-019-R-J1-PDC and 885512-296-R-J2-PDC; and one ovarian carcinoma: 6556581-035-R-J-PDC were obtained from the NCI PDMR, (https://pdmr.cancer.gov). The established cell lines HSSY-2 synovial sarcoma (RRID:CVCL 8719), SYO-1 synovial sarcoma (RRID:CVCL_7146), MPNST malignant peripheral neural sheath tumor were obtained from the Sloan Kettering Institute. The following established cell lines were purchased from the American Type Culture Collection (ATCC, Manassas, VA), Sor the received from the NCI repository:, PANC-1 pancreatic carcinoma (CRL-1469, RRID:CVCL_0480), OVCAR-5 ovarian carcinoma (RRID:CVCL_1628), OVCAR-8 ovarian carcinoma (RRID:CVCL_1629), , MCF-7 breast carcinoma (CRL-12584, RRID:CVCL_0031), MDA-MB-231 breast carcinoma (CRL-12532, RRID:CVCL_0062), NCI-H1876 small cell lung carcinoma (CRL-5902, RRID:CVCL_1503), NCI-H510A small cell lung carcinoma (HTB-184, RRID:CVCL_1565), NCI-H1417 (CRL-5869, RRID:CVCL_1469), and NCI-H196 small cell lung carcinoma (CRL-5823, RRID:CVCL_1509). Dr. Peter Houghton (Greehey Children's Cancer Research Institute, University of Texas Health Science Center, San Antonio, TX) provided Rh-18 rhabdomyosarcoma (RRID:CVCL_1659). Pooled donor human umbilical vein endothelial cells (HUVEC, Lonza, cat. CC-2519) and human mesenchymal stem cells (hMSC, Lonza, cat. PT-2501) were purchased from Lonza (Walkersville, MD).
Cell Culture. […]

[1] = second compound 0.00949 µM, first compound 0.0316 µM
[2] = second compound 0.00949 µM, first compound 0.1 µM
[3] = second compound 0.03 µM, first compound 0.0316 µM
[4] = second compound 0.03 µM, first compound 0.1 µM
[5] = second compound 0.0949 µM, first compound 0.0316 µM
[6] = second compound 0.0949 µM, first compound 0.1 µM
[7] = second compound 0.3 µM, first compound 0.0316 µM
[8] = second compound 0.3 µM, first compound 0.1 µM
[9] = second compound 0.949 µM, first compound 0.0316 µM
[10] = second compound 0.949 µM, first compound 0.1 µM
[11] = second compound 3 µM, first compound 0.0316 µM
[12] = second compound 3 µM, first compound 0.1 µM
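Note: spheroids exposed to compounds for 7 days.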

pIC50 (second compound 0.00949 µM): < 7.00
pIC50 (second compound 0.03 µM): < 7.00
pIC50 (second compound 0.0949 µM): < 7.00
pIC50 (second compound 0.3 µM): < 7.00
pIC50 (second compound 0.949 µM): < 7.00
pIC50 (second compound 3 µM): < 7.00
SMILES: Cn1ncnc1[C@H]1c2n[nH]c(=O)c3cc(F)cc(c23)N[C@@H]1c1ccc(F)cc1 + CCN1C(C(=O)NC23CCC(C(=O)O)(CC2)CC3)C(c2cccc(Cl)c2F)C2(C(=O)Nc3cc(Cl)ccc32)C12CCCCC2
viability, T/C (second compound 0.00949 µM, first compound 0.000316 µM): 109%
viability, T/C (second compound 0.00949 µM, first compound 0.001 µM): 94.8%
viability, T/C (second compound 0.00949 µM, first compound 0.00316 µM): 96.6%
viability, T/C (second compound 0.00949 µM, first compound 0.01 µM): 91.8%
viability, T/C [1]: 88.4%
viability, T/C [2]: 81.8%
viability, T/C (second compound 0.03 µM, first compound 0.000316 µM): 103%
viability, T/C (second compound 0.03 µM, first compound 0.001 µM): 98.1%
viability, T/C (second compound 0.03 µM, first compound 0.00316 µM): 100%
viability, T/C (second compound 0.03 µM, first compound 0.01 µM): 105%
viability, T/C [3]: 90.1%
viability, T/C [4]: 81.1%
viability, T/C (second compound 0.0949 µM, first compound 0.000316 µM): 104%
viability, T/C (second compound 0.0949 µM, first compound 0.001 µM): 102%
viability, T/C (second compound 0.0949 µM, first compound 0.00316 µM): 106%
viability, T/C (second compound 0.0949 µM, first compound 0.01 µM): 88.7%
viability, T/C [5]: 87.8%
viability, T/C [6]: 78.6%
viability, T/C (second compound 0.3 µM, first compound 0.000316 µM): 104%
viability, T/C (second compound 0.3 µM, first compound 0.001 µM): 99.9%
viability, T/C (second compound 0.3 µM, first compound 0.00316 µM): 110%
viability, T/C (second compound 0.3 µM, first compound 0.01 µM): 108%
viability, T/C [7]: 104%
viability, T/C [8]: 87.3%
viability, T/C (second compound 0.949 µM, first compound 0.000316 µM): 102%
viability, T/C (second compound 0.949 µM, first compound 0.001 µM): 91.2%
viability, T/C (second compound 0.949 µM, first compound 0.00316 µM): 91.2%
viability, T/C (second compound 0.949 µM, first compound 0.01 µM): 92.4%
viability, T/C [9]: 99.4%
viability, T/C [10]: 85.5%
viability, T/C (second compound 3 µM, first compound 0.000316 µM): 76.4%
viability, T/C (second compound 3 µM, first compound 0.001 µM): 78.5%
viability, T/C (second compound 3 µM, first compound 0.00316 µM): 80.6%
viability, T/C (second compound 3 µM, first compound 0.01 µM): 70.3%
viability, T/C [11]: 75.3%
viability, T/C [12]: 65.7%

pIC50 (second compound 0.00949 µM): < 5.00
pIC50 (second compound 0.03 µM): < 5.00
pIC50 (second compound 0.0949 µM): < 5.00
pIC50 (second compound 0.3 µM): < 5.00
pIC50 (second compound 0.949 µM): < 5.00
pIC50 (second compound 3 µM): < 5.00
SMILES: O=C(c1cc(Cc2n[nH]c(=O)c3ccccc23)ccc1F)N1CCN(C(=O)C2CC2)CC1 + CCN1C(C(=O)NC23CCC(C(=O)O)(CC2)CC3)C(c2cccc(Cl)c2F)C2(C(=O)Nc3cc(Cl)ccc32)C12CCCCC2
viability, T/C [1]: 101%
viability, T/C [2]: 87.5%
viability, T/C (second compound 0.00949 µM, first compound 0.316 µM): 95.5%
viability, T/C (second compound 0.00949 µM, first compound 1 µM): 95%
viability, T/C (second compound 0.00949 µM, first compound 3.16 µM): 88%
viability, T/C (second compound 0.00949 µM, first compound 10 µM): 67.5%
viability, T/C [3]: 101%
viability, T/C [4]: 102%
viability, T/C (second compound 0.03 µM, first compound 0.316 µM): 97.6%
viability, T/C (second compound 0.03 µM, first compound 1 µM): 93.3%
viability, T/C (second compound 0.03 µM, first compound 3.16 µM): 88.4%
viability, T/C (second compound 0.03 µM, first compound 10 µM): 64.3%
viability, T/C [5]: 101%
viability, T/C [6]: 93%
viability, T/C (second compound 0.0949 µM, first compound 0.316 µM): 108%
viability, T/C (second compound 0.0949 µM, first compound 1 µM): 104%
viability, T/C (second compound 0.0949 µM, first compound 3.16 µM): 90.6%
viability, T/C (second compound 0.0949 µM, first compound 10 µM): 58.6%
viability, T/C [7]: 95.8%
viability, T/C [8]: 104%
viability, T/C (second compound 0.3 µM, first compound 0.316 µM): 107%
viability, T/C (second compound 0.3 µM, first compound 1 µM): 96.8%
viability, T/C (second compound 0.3 µM, first compound 3.16 µM): 96.9%
viability, T/C (second compound 0.3 µM, first compound 10 µM): 68.4%
viability, T/C [9]: 104%
viability, T/C [10]: 89.5%
viability, T/C (second compound 0.949 µM, first compound 0.316 µM): 96.3%
viability, T/C (second compound 0.949 µM, first compound 1 µM): 91.2%
viability, T/C (second compound 0.949 µM, first compound 3.16 µM): 75.5%
viability, T/C (second compound 0.949 µM, first compound 10 µM): 66.3%
viability, T/C [11]: 75.2%
viability, T/C [12]: 67.3%
viability, T/C (second compound 3 µM, first compound 0.316 µM): 74.2%
viability, T/C (second compound 3 µM, first compound 1 µM): 73.1%
viability, T/C (second compound 3 µM, first compound 3.16 µM): 72.5%
viability, T/C (second compound 3 µM, first compound 10 µM): 64.8%
